In ChEMBL document CHEMBL5674860, “Optimized Dual-Glo Assay to identify co-culture-induced drug vulnerabilities in 3D CRC models” (2024):

Columns and labels:
Type in all cases: functional, Homo sapiens
Set-up in all cases: dose or concentration left out as unconfirmed
Colon cancer organoid [1] = test: Optimized Dual-Glo assay to identify co-culture induced drug vulnerabilities using donated chemical probes and chemogenomics kinase set in O06 CRC organoid and F06 CAF mono and co-culture. […] Cell viability is reported both mono and co-culture models.
Colon cancer organoid [2] = test: Optimized Dual-Glo assay to identify co-culture induced drug vulnerabilities using donated chemical probes and chemogenomics kinase set in O14 CRC organoid and F14 CAF mono and co-culture. […] Cell viability is reported both mono and co-culture models.
Colon cancer organoid [3] = test: Optimized Dual-Glo assay to identify co-culture induced drug vulnerabilities using donated chemical probes and chemogenomics kinase set in O20 CRC organoid and F20 CAF mono and co-culture. […] Cell viability is reported both mono and co-culture models.
[4] = Culture type Co-Culture, Transduced with Lucferase2-P2A-EGFP lentivirus
[5] = Culture type Co-Culture, Transduced with Renilla-dsRed lentivirus
[6] = Culture type Mono-Culture, Transduced with Lucferase2-P2A-EGFP lentivirus
[7] = Culture type Mono-Culture, Transduced with Renilla-dsRed lentivirus

| Structure (SMILES) | Cell Viability (Colon cancer organoid [1]; [4]) [%] | Cell Viability (Colon cancer organoid [1]; [5]) [%] | Cell Viability (Colon cancer organoid [1]; [6]) [%] | Cell Viability (Colon cancer organoid [1]; [7]) [%] | Cell Viability (Colon cancer organoid [2]; [4]) [%] | Cell Viability (Colon cancer organoid [2]; [5]) [%] | Cell Viability (Colon cancer organoid [2]; [6]) [%] | Cell Viability (Colon cancer organoid [2]; [7]) [%] | Cell Viability (Colon cancer organoid [3]; [4]) [%] | Cell Viability (Colon cancer organoid [3]; [5]) [%] | Cell Viability (Colon cancer organoid [3]; [6]) [%] | Cell Viability (Colon cancer organoid [3]; [7]) [%] |
| --- | --- | --- | --- | --- | --- | --- | --- | --- | --- | --- | --- | --- |
| CCCCNc1ncc(-c2ccc(CN3CCOCC3)cn2)c(N[C@H]2CC[C@H](O)CC2)n1 | 22.8495 | 123.664 | 12.6023 | 77.4775 | 23.305 | 148.151 | 59.2421 | 71.142 | 8.774 | 223.767 | 10.8517 | 82.0591 |
| CN1CCN(Cc2cc(NC(=O)c3ccc4c(c3)CN(c3ccccc3)CC4)cc(C(F)(F)F)c2)CC1 | 103.855 | 89.7391 | 108.49 | 105.467 | 99.7753 | 107.038 | 129.235 | 97.9505 | 90.0307 | 84.0381 | 92.4079 | 96.3902 |
| Cc1cn(-c2cc(NC(=O)c3ccc4c(c3)CN(c3cncnc3)C[C@@H]4C)cc(C(F)(F)F)c2)cn1 | 85.5561 | 98.7805 | 59.4105 | 105.628 | 105.46 | 96.2213 | 134.218 | 97.9875 | 88.3808 | 107.854 | 86.0975 | 111.829 |
| Cc1cccc(-c2cnc3occ(-c4ccc(C(=O)O)c(C5CCCC5)c4)c3c2)c1 | 95.2844 | 61.5637 | 124.633 | 116.796 | 114.736 | 94.3308 | 126.625 | 90.9911 | 88.6258 | 133.429 | 94.6873 | 103.401 |
| O=C(NCCCN1CCOC1=O)c1cnc(NCc2cc(Br)ccc2Br)nc1NC1CCCC1 | 110.394 | 154.807 | 109.931 | 185.402 | 74.8932 | 125.798 | 157.235 | 136.857 | 103.947 | 94.0994 | 97.7699 | 110.221 |
| O=C(O)c1ccc(-c2coc3ncc(-c4ccccc4)cc23)cc1Cl | 226.279 | 119.386 | 202.946 | 112.766 | 199.753 | 90.4064 | 200.801 | 87.3818 | 189.357 | 126.188 | 202.493 | 116.18 |
| c1ccc(C2CCN(c3cnc4c(N5CCOCC5)nccn34)CC2)cc1 | 98.2025 | 98.7191 | 229.272 | 111.241 | 111.149 | 110.22 | 155.031 | 89.751 | 90.2822 | 108.246 | 142.742 | 115.191 |
| COc1cccc2c1C(=O)c1c(O)c3c(c(O)c1C2=O)CC(O)(C(=O)CO)CC3OC1CC(N)C(O)C(C)O1.Cl (stereo unspecified) | 14.9439 | 235.56 | 8.313 | 104.821 | 1.614 | 163.438 | 2.622 | 97.5605 | 5.379 | 237.178 | 7.074 | 81.7547 |
